# According to ChEMBL document CHEMBL4350989, “Discovery of 2,4-diarylaminopyrimidine derivatives bearing dithiocarbamate moiety as novel FAK inhibitors with antitumor and anti-angiogenesis activities” (Eur J Med Chem, 2019):
# Experiments:
# HCT-116 [1] = assay: Induction of apoptosis in human HCT116 cells after 24 hrs by Annexin-V and 7-AAD staining based flow cytometric analysis; assay type: functional, cell-based
# HCT-116 [2] = assay: Induction of apoptosis in human HCT116 cells assessed as viable cells at 0.005 uM after 24 hrs by Annexin-V and 7-AAD staining based flow cytometric analysis (reference value: 88.6%); assay type: functional; conditions: HCT-116, 24 h, read-out: Activity
# HCT-116 [3] = assay: Induction of cell cycle arrest in human HCT116 cells assessed as accumulation at S phase at 0.005 uM after 24 hrs by 7-AAD staining-based flow cytometric analysis (reference value: 37.20%); assay type: functional
# HCT-116 [4] = assay: Induction of apoptosis in human HCT116 cells assessed as early apoptotic cells at 0.1 uM after 24 hrs by Annexin-V and 7-AAD staining based flow cytometric analysis ((reference value: 8.11%); assay type: functional
# HCT-116 [5] = assay: Induction of cell cycle arrest in human HCT116 cells assessed as accumulation at G0/G1 phase at 0.1 uM after 24 hrs by 7-AAD staining-based flow cytometric analysis (reference value: 50.53%); assay type: functional
# MCF7 [6] = assay: Induction of cell cycle arrest in human MCF7 cells assessed as accumulation at G2/M phase at 0.01 uM after 24 hrs by 7-AAD staining-based flow cytometric analysis (reference value: 11.48%); assay type: functional
# MCF7 [7] = assay: Induction of apoptosis in human MCF7 cells assessed as necrotic cells at 0.005 uM after 24 hrs by Annexin-V and 7-AAD staining based flow cytometric analysis (reference value: 0.16%); assay type: functional
# U-87 MG = assay: Antiproliferative activity against human U87MG cells overexpressing FAK assessed as reduction in cell viability after 72 hrs by MTS assay
# HCT-116 [8] = assay: Induction of apoptosis in human HCT116 cells assessed as late apoptotic cells at 0.005 uM after 24 hrs by Annexin-V and 7-AAD staining based flow cytometric analysis (reference value: 2.63%); assay type: functional
# HCT-116 [9] = assay: Induction of apoptosis in human HCT116 cells assessed as late apoptotic cells at 0.05 uM after 24 hrs by Annexin-V and 7-AAD staining based flow cytometric analysis (reference value: 2.63%); assay type: functional
# HCT-116 [10] = assay: Induction of apoptosis in human HCT116 cells assessed as necrotic cells at 0.1 uM after 24 hrs by Annexin-V and 7-AAD staining based flow cytometric analysis (reference value: 0.68%); assay type: functional
# MCF7 [11] = assay: Antiproliferative activity against human MCF7 cells overexpressing FAK assessed as reduction in cell viability after 72 hrs by MTS assay; conditions: MCF7, 72 h
# MCF7 [12] = assay: Induction of apoptosis in human MCF7 cells assessed as early apoptotic cells at 0.005 uM after 24 hrs by Annexin-V and 7-AAD staining based flow cytometric analysis (reference value: 2.04%); assay type: functional
# PC-3 = assay: Antiproliferative activity against human PC3 cells overexpressing FAK assessed as reduction in cell viability after 72 hrs by MTS assay; conditions: PC-3, 72 h
# MCF7 [13] = assay: Induction of apoptosis in human MCF7 cells assessed as early apoptotic cells at 0.05 uM after 24 hrs by Annexin-V and 7-AAD staining based flow cytometric analysis (reference value: 2.04%); assay type: functional
# MCF7 [14] = assay: Induction of cell cycle arrest in human MCF7 cells assessed as accumulation at G0/G1 phase at 0.005 uM after 24 hrs by 7-AAD staining-based flow cytometric analysis (reference value: 62.45%); assay type: functional
# HCT-116 [15] = assay: Induction of cell cycle arrest in human HCT116 cells assessed as accumulation at G2/M phase at 0.05 uM after 24 hrs by 7-AAD staining-based flow cytometric analysis (reference value: 12.26%); assay type: functional
# MCF7 [16] = assay: Induction of apoptosis in human MCF7 cells assessed as viable cells at 0.01 uM after 24 hrs by Annexin-V and 7-AAD staining based flow cytometric analysis (reference value: 90.2%); assay type: functional; conditions: MCF7, 24 h, read-out: Activity
# MCF7 [17] = assay: Induction of apoptosis in human MCF7 cells assessed as early apoptotic cells at 0.01 uM after 24 hrs by Annexin-V and 7-AAD staining based flow cytometric analysis (reference value: 2.04%); assay type: functional
# MCF7 [18] = assay: Induction of apoptosis in human MCF7 cells assessed as viable cells at 0.05 uM after 24 hrs by Annexin-V and 7-AAD staining based flow cytometric analysis (reference value: 90.2%); assay type: functional; conditions: MCF7, 24 h, read-out: Activity
# MCF7 [19] = assay: Induction of cell cycle arrest in human MCF7 cells assessed as accumulation at G2/M phase at 0.005 uM after 24 hrs by 7-AAD staining-based flow cytometric analysis (reference value: 11.48%); assay type: functional
# MCF7 [20] = assay: Induction of cell cycle arrest in human MCF7 cells assessed as accumulation at G0/G1 phase at 0.01 uM after 24 hrs by 7-AAD staining-based flow cytometric analysis (reference value: 62.45%); assay type: functional
# MCF-10A = assay: Cytotoxicity against human MCF10A cells assessed as reduction in cell viability after 72 hrs by MTS assay
# MCF7 [21] = assay: Induction of apoptosis in human MCF7 cells assessed as viable cells at 0.005 uM after 24 hrs by Annexin-V and 7-AAD staining based flow cytometric analysis (reference value: 90.2%); assay type: functional; conditions: MCF7, 24 h, read-out: Activity
# HCT-116 [22] = assay: Induction of cell cycle arrest in human HCT116 cells assessed as accumulation at G2/M phase at 0.005 uM after 24 hrs by 7-AAD staining-based flow cytometric analysis (reference value: 12.26%); assay type: functional
# HCT-116 [23] = assay: Antiproliferative activity against human HCT116 cells overexpressing FAK assessed as reduction in cell viability after 72 hrs by MTS assay; conditions: HCT-116, 72 h
# HCT-116 [24] = assay: Induction of cell cycle arrest in human HCT116 cells assessed as accumulation at S phase at 0.1 uM after 24 hrs by 7-AAD staining-based flow cytometric analysis (reference value: 37.20%); assay type: functional
# MCF7 [25] = assay: Induction of apoptosis in human MCF7 cells assessed as late apoptotic cells at 0.005 uM after 24 hrs by Annexin-V and 7-AAD staining based flow cytometric analysis (reference value: 7.63%); assay type: functional
# HCT-116 [26] = assay: Induction of cell cycle arrest in human HCT116 cells assessed as accumulation at G0/G1 phase at 0.05 uM after 24 hrs by 7-AAD staining-based flow cytometric analysis (reference value: 50.53%); assay type: functional
# Homo sapiens = species on record: Homo sapiens; assay: Induction of apoptosis in human […] after 24 hrs by Annexin-V and 7-AAD staining based flow cytometric analysis; assay type: functional, cell-based
# HCT-116 [27] = assay: Induction of apoptosis in human HCT116 cells assessed as necrotic cells at 0.05 uM after 24 hrs by Annexin-V and 7-AAD staining based flow cytometric analysis (reference value: 0.68%); assay type: functional
# MCF7 [28] = assay: Induction of cell cycle arrest in human MCF7 cells assessed as accumulation at S phase at 0.005 uM after 24 hrs by 7-AAD staining-based flow cytometric analysis (reference value: 26.07%); assay type: functional
# MCF7 [29] = assay: Induction of apoptosis in human MCF7 cells assessed as necrotic cells at 0.05 uM after 24 hrs by Annexin-V and 7-AAD staining based flow cytometric analysis (reference value: 0.16%); assay type: functional
# HCT-116 [30] = assay: Induction of apoptosis in human HCT116 cells assessed as late apoptotic cells at 0.1 uM after 24 hrs by Annexin-V and 7-AAD staining based flow cytometric analysis (reference value: 2.63%); assay type: functional
compound,measurement,setting,value
CNC(=O)c1ccccc1Nc1nc(Nc2ccc(C(=O)N3CCN(C(=S)SCCN(C)C)CC3)cc2)ncc1C(F)(F)F,Activity,HCT-116 [1],Dose-dependent effect
same,viability at 0.005 µM,HCT-116 [2],82.4%
same,Activity,HCT-116 [3],41.86%
same,Activity,HCT-116 [4],21.5%
same,Activity,HCT-116 [5],5.14%
same,Activity,MCF7 [6],81.73%
same,Activity,MCF7 [7],0.16%
same,IC50,U-87 MG,60 nM
same,Activity,HCT-116 [8],1.42%
same,Activity,HCT-116 [9],1.68%
same,Activity,HCT-116 [10],0%
same,IC50,MCF7 [11],20 nM
same,Activity,MCF7 [12],9.11%
same,IC50,PC-3,30 nM
same,Activity,MCF7 [13],13.7%
same,Activity,MCF7 [14],41.93%
same,Activity,HCT-116 [15],87.56%
same,viability at 0.01 µM,MCF7 [16],71.2%
same,Activity,MCF7 [17],6.95%
same,viability at 0.05 µM,MCF7 [18],60.1%
same,Activity,MCF7 [19],36.67%
same,Activity,MCF7 [20],9.52%
same,IC50,MCF-10A,280 nM
same,viability at 0.005 µM,MCF7 [21],74.2%
same,Activity,HCT-116 [22],18.38%
same,IC50,HCT-116 [23],1 nM
same,Activity,HCT-116 [24],4.4%
same,Activity,MCF7 [25],16.5%
same,Activity,HCT-116 [26],3.4%
same,Activity,Homo sapiens,Dose-dependent effect
same,Activity,HCT-116 [27],0.29%
same,Activity,MCF7 [28],21.4%
same,Activity,MCF7 [29],0.56%
same,Activity,HCT-116 [30],0.16%
